The record followed here is BigSolDB 2.1.

The conditions of this data set: in water.

As to `CCC(N)=O`, the solubility (mole fraction) (278.15 K) worked out at 0.134; the solubility (mole fraction) (283.15 K) is 0.163; the solubility (mole fraction) (288.15 K) turned out to be 0.195; the solubility (mole fraction) (293.15 K) amounted to 0.232; the solubility (mole fraction) (298.15 K) is 0.276; the solubility (mole fraction) (303.15 K) is 0.315. Further, the solubility (mole fraction) is, setting by setting: (308.15 K) 0.371; (313.15 K) 0.4; (318.15 K) 0.45; (323.15 K) 0.486; (328.15 K) 0.527; (333.15 K) 0.568.
For `CCCC(N)=O`, the solubility (mole fraction) by setting is: (278.15 K) 0.0163; (283.15 K) 0.021; (288.15 K) 0.026; (293.15 K) 0.0331; (298.15 K) 0.0442; (303.15 K) 0.0575. Besides, the solubility (mole fraction) is, setting by setting: (308.15 K) 0.0724; (313.15 K) 0.0895; (318.15 K) 0.109; (323.15 K) 0.131; (328.15 K) 0.152; (333.15 K) 0.175.
